Values joined by “and” are separate entries in the source; they are usually repeats but may differ in a detail not shown here. Equal values may be shown once. Inconclusive results and toxic doses are left out. Peptide text beside a SMILES is read from it. * marks the point of attachment. Cbz = O=C(OCc1ccccc1)*
Tested on: P388 leukemia ip, CD2F1 mice, survival T/C
Assay: NCI In Vivo Anticancer Drug Screen. Data for tumor model P388 Leukemia (intraperitoneal) in CD2F1 (CDF1) mice
Conditions: endpoint: median survival time, higher = longer survival
Outline: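 Mice carrying the transplanted tumor received test compound or vehicle. Survival was recorded in each group, and the value is the treated-group measurement divided by that of the vehicle-treated control group.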

[1] = dose: 50.0 mg/kg/injection, schedule: Q01DX009 (ip), vehicle: saline
[2] = dose: 100.0 mg/kg/injection, schedule: Q01DX009 (ip), vehicle: saline
[3] = dose: 200.0 mg/kg/injection, schedule: Q01DX009 (ip), vehicle: saline
[4] = dose: 12.5 mg/kg/injection, schedule: Q01DX009 (ip), vehicle: other
[5] = dose: 25.0 mg/kg/injection, schedule: Q01DX009 (ip), vehicle: other
[6] = dose: 50.0 mg/kg/injection, schedule: Q01DX009 (ip), vehicle: other
[7] = dose: 100.0 mg/kg/injection, schedule: Q01DX009 (ip), vehicle: other
[8] = dose: 60.0 mg/kg/injection, schedule: Q01DX005 (ip), vehicle: saline with Tween-80
[9] = dose: 120.0 mg/kg/injection, schedule: Q01DX005 (ip), vehicle: saline with Tween-80
[10] = dose: 50.0 mg/kg/injection, schedule: Q01DX005 (ip), vehicle: Klucel (hydroxypropylcellulose) (HPC)
[11] = dose: 100.0 mg/kg/injection, schedule: Q01DX005 (ip), vehicle: Klucel (hydroxypropylcellulose) (HPC)
[12] = dose: 200.0 mg/kg/injection, schedule: Q01DX005 (ip), vehicle: Klucel (hydroxypropylcellulose) (HPC)
[13] = dose: 3.12 mg/kg/injection, schedule: Q01DX005 (ip), vehicle: Klucel (hydroxypropylcellulose) (HPC)
[14] = dose: 6.25 mg/kg/injection, schedule: Q01DX009 (ip), vehicle: saline with Tween-80
[15] = dose: 12.5 mg/kg/injection, schedule: Q01DX009 (ip), vehicle: saline with Tween-80
[16] = dose: 25.0 mg/kg/injection, schedule: Q01DX009 (ip), vehicle: saline with Tween-80
[17] = dose: 50.0 mg/kg/injection, schedule: Q01DX009 (ip), vehicle: saline with Tween-80

With `CC(=O)SC1CC(=O)OC1=O` (stereo unspecified) the T/C (dose: 25.0 mg/kg/injection, schedule: Q01DX009 (ip), vehicle: saline) was 100 % of control, the T/C [1] was 105 % of control and the T/C [2] was 96 % of control. The T/C [3] was 105 % of control.
In the case of `COc1ccc(-c2c(N)cnc(C(=O)O)c2C)c(O)c1OC`, the T/C [4] is reported as 95 % of control, the T/C [5] is reported as 104 % of control and the T/C [6] is reported as 112 % of control. For the same compound, the T/C [7] was 95 % of control and the T/C (dose: 200.0 mg/kg/injection, schedule: Q01DX009 (ip), vehicle: other) was 100 % of control.
In the case of `O=C(Cn1nnc2ccccc21)N1CCN(c2ccccc2)CC1`, the T/C [8] is reported as 90 % of control and the T/C [9] is reported as 87 % of control.
With `O=C(Nc1cccnc1)c1ccc(CSc2ccc(Cl)cc2)o1` the T/C [10] was 104 % of control, the T/C [11] was 102 % of control and the T/C [12] was 111 % of control.
In the case of `COc1cc(C2=N/C(=C/c3cccc(O)c3O)C(=O)O2)cc(OC)c1OC`, the T/C (dose: 6.25 mg/kg/injection, schedule: Q01DX009 (ip), vehicle: Klucel (hydroxypropylcellulose) (HPC)) is reported as 101 % of control and the T/C (dose: 12.5 mg/kg/injection, schedule: Q01DX009 (ip), vehicle: Klucel (hydroxypropylcellulose) (HPC)) is reported as 96 % of control.
`CN(C)CC(CN(C)C)C(=O)/C=C/c1ccc2c(c1)OCO2` was tested, and the T/C (dose: 0.78 mg/kg/injection, schedule: Q01DX005 (ip), vehicle: Klucel (hydroxypropylcellulose) (HPC)) was 112 % of control, the T/C (dose: 1.56 mg/kg/injection, schedule: Q01DX005 (ip), vehicle: Klucel (hydroxypropylcellulose) (HPC)) was 104 % of control and the T/C [13] was 104 % of control.
`CC(=O)NC1C(=O)OC(C(O)CO)C1O` (stereo unspecified) was tested, and the T/C (dose: 12.5 mg/kg/injection, schedule: Q01DX009 (ip), vehicle: water) was 106 % of control, the T/C (dose: 25.0 mg/kg/injection, schedule: Q01DX009 (ip), vehicle: water) was 91 % of control and the T/C (dose: 50.0 mg/kg/injection, schedule: Q01DX009 (ip), vehicle: water) was 94 % of control. The T/C (dose: 100.0 mg/kg/injection, schedule: Q01DX009 (ip), vehicle: water) was 102 % of control and the T/C (dose: 200.0 mg/kg/injection, schedule: Q01DX009 (ip), vehicle: water) was 98 % of control.
In the case of `C/C(=N\NC(=S)N1CCCCC1)c1ccccn1`, the T/C [14] is reported as 98 % of control and the T/C [15] is reported as 100 % of control.
`COc1ccc(C(C)c2cc3c(cc2OCCO)OCO3)cc1OC` (stereo unspecified) was tested, and the T/C (dose: 50.0 mg/kg/injection, schedule: Q01DX005 (ip), vehicle: distilled water + Tween-80) was 97 % of control, the T/C (dose: 100.0 mg/kg/injection, schedule: Q01DX005 (ip), vehicle: distilled water + Tween-80) was 93 % of control and the T/C (dose: 200.0 mg/kg/injection, schedule: Q01DX005 (ip), vehicle: distilled water + Tween-80) was 97 % of control.
In the case of `O=C(NNc1ccc(F)cc1)C12CC3CC(CC(C3)C1)C2`, the T/C [15] is reported as 103 % of control, the T/C [16] is reported as 99 % of control and the T/C [17] is reported as 87 % of control.
For `Cc1c2ccncc2c(C)c2c1sc1ccccc12`, the T/C (dose: 12.5 mg/kg/injection, schedule: Q04DX003 (ip), vehicle: alkali diluted with water) was 121 % of control, the T/C (dose: 200.0 mg/kg/injection, schedule: Q04DX003 (ip), vehicle: alkali diluted with water) was 162 % of control and the T/C (dose: 200.0 mg/kg/injection, schedule: Q04DX003 (ip), vehicle: distilled water + Tween-80) was 155 % of control. The T/C (dose: 400.0 mg/kg/injection, schedule: Q04DX003 (ip), vehicle: distilled water + Tween-80) was 117 % of control.
In the case of `Cc1ccc(S(=O)(=O)N=S(C)(C)=O)cc1`, the T/C (dose: 0.1 mg/kg/injection, schedule: Q01DX009 (ip), vehicle: saline with Tween-80) is reported as 104 % of control, the T/C (dose: 0.2 mg/kg/injection, schedule: Q01DX009 (ip), vehicle: saline with Tween-80) is reported as 105 % of control and 108 % of control and the T/C (dose: 0.39 mg/kg/injection, schedule: Q01DX009 (ip), vehicle: saline with Tween-80) is reported as 99 % of control and 101 % of control. The T/C (dose: 0.78 mg/kg/injection, schedule: Q01DX009 (ip), vehicle: saline with Tween-80) was 107 % of control, the T/C (dose: 0.79 mg/kg/injection, schedule: Q01DX009 (ip), vehicle: saline with Tween-80) was 98 % of control and the T/C (dose: 1.56 mg/kg/injection, schedule: Q01DX009 (ip), vehicle: saline with Tween-80) was 108 % of control and 120 % of control and 96 % of control. The T/C [14] was 100 % of control and 105 % of control and 91 % of control, the T/C [15] was 104 % of control and 88 % of control and the T/C [16] was 97 % of control.
In the case of `C=CCc1cc(Nc2c3ccc(Cl)cc3nc3ccc(OC)cc23)cc(CN(CC)CC)c1O`, the T/C [13] is reported as 106 % of control and 110 % of control, the T/C (dose: 6.0 mg/kg/injection, schedule: Q01DX005 (ip), vehicle: Klucel (hydroxypropylcellulose) (HPC)) is reported as 118 % of control and the T/C (dose: 6.25 mg/kg/injection, schedule: Q01DX005 (ip), vehicle: Klucel (hydroxypropylcellulose) (HPC)) is reported as 109 % of control and 110 % of control. For the same compound, the T/C (dose: 12.0 mg/kg/injection, schedule: Q01DX005 (ip), vehicle: Klucel (hydroxypropylcellulose) (HPC)) was 123 % of control.
With `O=C(Nc1cccc2c1C(=O)c1ccc(Nc3cc(NC(=O)c4ccccc4)c4c(c3)C(=O)c3ccccc3C4=O)cc1C2=O)c1ccccc1` the T/C (dose: 100.0 mg/kg/injection, schedule: Q04DX003 (ip), vehicle: saline with Tween-80) was 100 % of control, the T/C (dose: 200.0 mg/kg/injection, schedule: Q04DX003 (ip), vehicle: saline with Tween-80) was 100 % of control and the T/C (dose: 400.0 mg/kg/injection, schedule: Q04DX003 (ip), vehicle: saline with Tween-80) was 109 % of control.
`N=C(N)n1cc(/C=N/N=C(N)N)cn1` was tested, and the T/C [8] was 102 % of control and the T/C [9] was 103 % of control.
For `COC(=O)Nc1ccc(C2OCCN2C(=O)Nc2ccc(Cl)cc2)cc1` (stereo unspecified), the T/C (dose: 50.0 mg/kg/injection, schedule: Q01DX005 (ip), vehicle: saline with Tween-80) was 87 % of control and the T/C (dose: 100.0 mg/kg/injection, schedule: Q01DX005 (ip), vehicle: saline with Tween-80) was 88 % of control.
With `COc1cccc2c1C(=O)c1c(O)c3c(c(O)c1C2=O)CC(O)(c1csc(C)n1)CC3O` (stereo unspecified) the T/C (dose: 1.56 mg/kg/injection, schedule: Q01DX009 (ip), vehicle: other) was 105 % of control, the T/C (dose: 3.13 mg/kg/injection, schedule: Q01DX009 (ip), vehicle: other) was 96 % of control and the T/C (dose: 6.25 mg/kg/injection, schedule: Q01DX009 (ip), vehicle: other) was 100 % of control. For the same compound, the T/C [4] was 100 % of control, the T/C [5] was 99 % of control and 107 % of control and the T/C [6] was 108 % of control. The T/C [7] was 107 % of control.
For `O=c1c(N=Nc2nc3ccccc3s2)c(O)n(-c2ccccc2)c(=S)n1-c1ccccc1`, the T/C (dose: 60.0 mg/kg/injection, schedule: Q01DX005 (ip), vehicle: saline) was 109 % of control, the T/C (dose: 120.0 mg/kg/injection, schedule: Q01DX005 (ip), vehicle: saline) was 100 % of control and the T/C (dose: 240.0 mg/kg/injection, schedule: Q01DX005 (ip), vehicle: saline) was 106 % of control.
In the case of `c1onc2c1C1CC3CC(C1)CC2C3`, the T/C (dose: 50.0 mg/kg/injection, schedule: Q01DX009 (ip), vehicle: Klucel (hydroxypropylcellulose) (HPC)) is reported as 96 % of control, the T/C (dose: 100.0 mg/kg/injection, schedule: Q01DX009 (ip), vehicle: Klucel (hydroxypropylcellulose) (HPC)) is reported as 89 % of control and the T/C (dose: 200.0 mg/kg/injection, schedule: Q01DX009 (ip), vehicle: Klucel (hydroxypropylcellulose) (HPC)) is reported as 92 % of control.
In the case of `COC(=S)C(=S)OC`, the T/C [15] is reported as 108 % of control and the T/C [16] is reported as 108 % of control.
For `Cc1cc(CCNC=O)c(C)c2c1oc1ccccc12`, the T/C [17] was 110 % of control, the T/C (dose: 100.0 mg/kg/injection, schedule: Q01DX009 (ip), vehicle: saline with Tween-80) was 103 % of control and the T/C (dose: 200.0 mg/kg/injection, schedule: Q01DX009 (ip), vehicle: saline with Tween-80) was 94 % of control. For the same compound, the T/C (dose: 400.0 mg/kg/injection, schedule: Q01DX009 (ip), vehicle: saline with Tween-80) was 94 % of control.
`c1ccc2c(c1)ccc1c(NCCCCNc3c4ccccc4nc4c3ccc3ccccc34)c3ccccc3nc12` was tested, and the T/C [14] was 107 % of control and the T/C [15] was 107 % of control.
In the case of `O=C(OCC(Cl)(Cl)Cl)N1[C@@H]2C=C[C@@H](N1C(=O)OCC(Cl)(Cl)Cl)[C@@]13CC(OCc4ccc(Br)cc4)CC21O3` (stereo partly specified), the T/C [10] is reported as 105 % of control, the T/C [11] is reported as 95 % of control and the T/C [12] is reported as 95 % of control.
With `CC(NC(=O)OCc1ccccc1)C(=O)NC(C(N)=O)C(C)C` (stereo not drawn) (Cbz-Ala-Val-NH2; configuration not given here) the T/C (dose: 12.5 mg/kg/injection, schedule: Q01DX005 (ip), vehicle: Klucel (hydroxypropylcellulose) (HPC)) was 89 % of control, the T/C (dose: 25.0 mg/kg/injection, schedule: Q01DX005 (ip), vehicle: Klucel (hydroxypropylcellulose) (HPC)) was 100 % of control and the T/C [12] was 86 % of control.
For `CCCCCCCC[N+]1([O-])CCOCC1`, the T/C [1] was 108 % of control, the T/C [2] was 97 % of control and the T/C [3] was 88 % of control.

Reference: PubChem BioAssay AID330 (DTP/NCI, 2004)
